Reference: ChEMBL document CHEMBL2034872, “Antineoplastic agents. 587. Isolation and structure of 3-epipancratistatin from Narcissus cv. Ice Follies” (2012)
≈ marks a conversion by molar mass, not a printed value.

Assays:
Format in all cases: functional
KM-20L2 = test: Cytotoxicity against human KM20L2 cells after 48 hrs by SRB assay; conditions: KM-20L2, 48 h
DU-145 = test: Cytotoxicity against human DU145 cells after 48 hrs by SRB assay; conditions: DU-145, 48 h
P388 = test: Cytotoxicity against mouse P388 cells after 48 hrs by cell counting; conditions: P388, 48 h, read-out: ED50 (the source's name)
BXPC-3 = test: Cytotoxicity against human BxPC3 cells after 48 hrs by SRB assay; conditions: BXPC-3, 48 h
MCF7 = test: Cytotoxicity against human MCF7 cells after 48 hrs by SRB assay; conditions: MCF7, 48 h
SF-268 = test: Cytotoxicity against human SF268 cells after 48 hrs by SRB assay; conditions: SF-268, 48 h
NCI-H460 = test: Cytotoxicity against human NCI-H460 cells after 48 hrs by SRB assay; conditions: NCI-H460, 48 h

SMILES | GI50 (KM-20L2) [µg/mL] | GI50 (DU-145) [µg/mL] | EC50 (P388) [µg/mL] | GI50 (BXPC-3) [µg/mL] | GI50 (MCF7) [µg/mL] | GI50 (SF-268) [µg/mL] | GI50 (NCI-H460) [µg/mL]
O=C1N[C@H]2[C@H](O)[C@@H](O)[C@@H](O)[C@H](O)[C@@H]2c2cc3c(c(O)c21)OCO3 (relative stereo) | 2.3 (≈ 7.07 µM) | 1.3 (≈ 4 µM) | 0.69 (≈ 2.12 µM) | 1.7 (≈ 5.23 µM) | 2.2 (≈ 6.76 µM) | 0.74 (≈ 2.28 µM) | 0.85 (≈ 2.61 µM)
O=C1N[C@H]2[C@H](O)[C@H](O)[C@@H](O)[C@H](O)[C@@H]2c2cc3c(c(O)c21)OCO3 [PANCRATISTATIN] | 0.025 (≈ 0.0769 µM) | 0.015 (≈ 0.0461 µM) | 0.017 (≈ 0.0523 µM) | 0.02 (≈ 0.0615 µM) | 0.023 (≈ 0.0707 µM) | 0.014 (≈ 0.043 µM) | 0.032 (≈ 0.0984 µM)
O=C1N[C@@H]2C(=C[C@H](O)[C@@H](O)[C@H]2O)c2cc3c(c(O)c21)OCO3 [NARCICLASINE] |  |  | 0.018 (≈ 0.0586 µM) |  |  |  | 
